The values that follow come from article PMC3811480, “The R Enantiomer of the Antitubercular Drug PA-824 as a Potential Oral Treatment for Visceral Leishmaniasis” (Antimicrobial Agents and Chemotherapy, 2013).

Series [1] deals with Trypanosoma brucei brucei S427 29-13 procyclic trypomastigotes. Nature of the series: In vitro drug sensitivity assay, T. brucei procyclics (72 h, resazurin). Type of series: cell-based. A general note: The colour change of resazurin is a common sign of viable cells or microbes.
The test system of series [2] is T. brucei bloodstream forms (S427 Single Marker). Nature of the series: In vitro drug sensitivity assay, bloodstream-form T. brucei. It counts as cell-based. The conditions noted are these: Trypanosoma brucei.
Series [3] relates to Trypanosoma cruzi Silvio-X10/7 clone A1 epimastigotes. Nature of the series: In vitro drug sensitivity assay, T. cruzi epimastigotes (72 h, resazurin). It counts as cell-based. To be noted: T. cruzi epimastigote.
The subject of series [4] is T. cruzi amastigotes in Vero cells. Nature of the series: In-Vero-cell T. cruzi drug sensitivity assay (72 h, high-content imaging). It counts as cell-based. To be noted: Trypanosoma cruzi; T. cruzi amastigote (in Vero cell).
In series [5] the test system is Leishmania donovani LdBOB promastigotes. The series can be described thus: In vitro drug sensitivity assay, L. donovani promastigotes (72 h, resazurin). It counts as cell-based. The conditions noted are these: for EC50: Leishmania donovani; for activity against L. donovani promastigotes: highest concentration tested 50 μM.
Series [6] relates to L. donovani intracellular amastigotes in mouse peritoneal macrophages. Nature of the series: In-macrophage drug sensitivity assay. It counts as cell-based, Leishmania donovani. The conditions noted are these: for EC50: L. donovani amastigote (in macrophage); for activity against L. donovani intracellular amastigotes: highest concentration tested 50 μM.
The next series relates to HepG2 cells. Nature of the series: HepG2 counterscreen (resazurin). It counts as cell-based. The conditions noted are these: Homo sapiens; Mammalian (HepG2); n = 2. Background: Counterscreens check selectivity or assay interference.
Series [7] is described as follows: Exposure in mice after acute oral dosing (blood levels, UPLC-MS/MS). It counts as in vivo, BALB/c mice. To be noted: for half-life: read-out: elimination half-life (t1/2) (converted); for Tmax: read-out: time of maximum concentration in blood. How it is done: The R and S enantiomers of PA-824 (50 mg kg^−1) were orally administered to BALB/c mice. Blood samples (10 μl) were collected from the tail vein of each animal into sample storage tubes (Micronic BV) containing deionized water (20 μl) at defined intervals postdose and stored at −80°C until analysis. The level of each enantiomer in mouse blood was determined by UPLC-MS/MS ([20]).

Series [8] deals with L. donovani amastigotes (LV9). The series can be described thus: In vivo drug sensitivity, mouse model of visceral leishmaniasis (liver parasite burden). Further details: species or system Leishmania donovani. The conditions noted are these: for suppression of infection (liver parasite burden) compared to untreated controls / suppression of infection (liver parasite burden): BALB/c mice; for suppression of infection (liver parasite burden) compared to untreated controls: 30 mg kg^−1 orally twice daily for 5 days.

The nature of series [9]: Tolerability in mice during the efficacy study. Type of series: in vivo, BALB/c mice. The conditions noted are these: 30 or 100 mg kg^−1 orally twice daily for 5 days. As for the experimental part: All animal experiments were approved by the University Ethical Review Committee and performed under the Animals (Scientific Procedures) Act 1986 in accordance with the European Communities Council Directive (86/609/EEC). Groups of female BALB/c mice (5 per group) were inoculated intravenously with approximately 2 × 10^7 L. donovani amastigotes (LV9; WHO designation MHOM/ET/67/HU3) harvested from the spleen of an infected hamster ([24]). […] Drug dosing solutions were prepared fresh each day, and the vehicle for both enantiomers of PA-824 was 10% (vol/vol) dimethyl sulfoxide (DMSO), 40% polyethylene glycol 400, and 50% deionized water. On day 14 postinfection, all animals were humanely euthanized and parasite burdens were determined by counting the number of amastigotes/500 liver cells ([11]). Parasite burden is expressed in Leishmania donovani units (LDU), mean number of amastigotes per liver cell × mg weight of liver ([25]).

Series [10] deals with Transgenic LdBOB promastigotes expressing the Leishmania major nitroreductase (LmjF.05.0660). The series can be described thus: microbe, parasite or virus in culture. It counts as cell-based, Leishmania donovani. To be noted: for EC50: Leishmania major, read-out: EC50 against NTR-overexpressing promastigotes.
Series [11] deals with promastigotes of the LdBOB strain of L. donovani. The series can be described thus: Drug combination studies (fixed-ratio isobologram, 72 h). Type of series: cell-based, Leishmania donovani. The conditions noted are these: for EC50: Leishmania donovani, compound alone, duplicate cultures, read-out: Absolute EC50. As for the experimental part:
The EC50s of each combination were determined after 72 h and plotted as an isobologram ([23]).

In a further series the test system is LdBOB promastigotes. The series can be described thus: PA-824-mediated cell killing (time to kill, wash-out viability). It counts as cell-based, Leishmania donovani. The conditions noted are these: 10 times EC50, promastigotes.
For series [12] the following is noted: mouse liver microsomes, 0.5 μM compound. A general note: Microsomes from liver hold many membrane-bound enzymes, among them those of drug oxidation.
For series [13], the system named is Mycobacterium tuberculosis. Further details: method as in PMID 22023140. The conditions noted are these: cited from earlier work.
A short description of the next series: in vitro. The conditions noted are these: mouse, plasma.
The conditions of series [14]: mouse PPB, equilibrium dialysis.
Series [15] has as its system T. brucei bloodstream forms (S427 Single Marker). To be noted: previously determined value; cited from earlier work.
The subject of series [16] is L. donovani intracellular amastigotes in mouse peritoneal macrophages. The conditions noted are these: comparator value, earlier work of the authors; cited from earlier work.
Series [17] concerns lab-generated strains of nifurtimox-resistant T. brucei. To be noted: cited from earlier work.
[18] abbreviates: L. donovani promastigote, read-out: EC50.
Setting [19] is: Leishmania donovani, Peritoneal macrophage.
The mark [20] stands for this setting: Leishmania donovani, Peritoneal macrophage, L. donovani in macrophages, from EC50 and Hill slope, read-out: EC90.
[21] abbreviates: BALB/c, mouse, whole blood, 50 mg kg^−1 oral.
[22] abbreviates: 100 mg kg^−1 orally twice daily for 5 days.
Where [23] appears, read: fixed-ratio isobologram, promastigotes.
[24] abbreviates: WT LdBOB promastigotes, nitroreductase experiment (Fig. 2), read-out: EC50 against wild-type (WT) promastigotes.

Where “and” joins values, the source holds several entries; their conditions need not be identical. Equal entries are not always repeated. Entries after “also recorded” stand apart in the source; their conditions may differ. Where two headings read alike, the source gives them in different places.

What is called EC50 is the midpoint of the concentration-response curve. As usually defined, the MIC is the smallest concentration in the dilution series that meets the test's criterion for growth inhibition. As a reminder, the fraction unbound is free concentration divided by total concentration. A lower fraction unbound goes with extensive binding. The solubility is the concentration that dissolves in the medium under given conditions. Low values mean a poorly soluble substance, high ones a readily soluble substance. Turning to `O=[N+]([O-])c1cn2c(n1)OC[C@H](OCc1ccc(OC(F)(F)F)cc1)C2` [(R)-PA-824], the EC50 stood at 25 ± 0.2 µM in series [1]; 14.9 ± 0.7 µM in series [2]; 700 ± 80 nM in [3]; 4.4 ± 0.5 µM in series [4]; 160 ± 30 nM in series [5] (setting [18]); 930 ± 60 nM in [6]. In addition, the half-maximal effective concentration (EC50) in series [6] (setting [19]) was 900 ± 100 nM; with HepG2 cells it was above 50 µM; in series [10], 110 ± 5 nM; in series [11] (Fig. 3A experiment) it was 180 nM; in series [11] (Fig. 3B experiment) it was 100 nM. Moreover, the EC90 in series [6] (setting [20]) was 3.4 µM; in series [6] (Leishmania donovani, Peritoneal macrophage, not adjusted for plasma protein binding, read-out: EC90 (equivalent mass concentration)), 1.2 µg/mL. Besides, the oral bioavailability result in series [7] is recorded as “orally bioavailable”. Also, the “maximum concentration in blood” value in series [7] (50 mg kg^−1 oral) was 10,500 ng ml^−1. For the same molecule, the half-life in [7] (setting [21]) is around 120 min. In series [7] (setting [21]), the Tmax is 4 h. For the same molecule, in [8], the “suppression of infection (liver parasite burden) compared to untreated controls” value was “approximately 35%”. Besides, the “suppression of infection (liver parasite burden)” value in series [8] (setting [22]) is > 99% and 99.9%. The tolerability in mice result in [9] is reported as “extremely well tolerated”. In addition, the “interaction in combination with (S)-PA-824” value in [11] (setting [23]) is “mild antagonistic behavior; also recorded: progressively more antagonistic; also recorded: mildly antagonistic”. The “interaction in combination with fexinidazole sulfone” value in [11] (setting [23]) is given as “act additively; also recorded: additive effect”. For the same molecule, the cytocidal or cytostatic result in the series on LdBOB promastigotes is given as “leishmanicidal rather than cytostatic; also recorded: cytocidal rather than cytostatic”. In the series with LdBOB promastigotes, the “time after which cell numbers begin to decline” value was determined as 12 h. Further, in the series with LdBOB promastigotes, the “time at which no intact/live parasites remain” value was 24 h. In addition, the CLint in [12] turned out to be 0.65 mL/min/g. Besides, the MIC in [13] is above 100 µM. For the same molecule, in “in vitro”, the fraction unbound amounted to 0.22. In the series “physchem”, this molecule registered a solubility above 250 µM.
Regarding `FC(F)(F)Oc1ccc(CO[C@H]2COc3nccn3C2)cc1` [(R)-des-nitro-PA-824], the “activity against L. donovani promastigotes” value in series [5] was “inactive”. Besides, the “activity against L. donovani intracellular amastigotes” value in [6] is “inactive”. In addition, the “fraction unbound (plasma protein binding)” value in series [14] came to 0.45.
As for `O=[N+]([O-])c1cn2c(n1)OC[C@@H](OCc1ccc(OC(F)(F)F)cc1)C2` [(S)-PA-824, reference compound], the concentration giving a half-maximal response (EC50) is 36.5 ± 2.5 µM in series [1]; 3400 ± 30 nM in series [3]; above 30 µM in series [4]; 900 ± 100 nM in series [5] (setting [18]); 960 ± 20 nM in series [5] (setting [24]); 4920 ± 300 nM in series [6]. Besides, the EC50 in [6] (setting [19]) was 4900 ± 300 nM; with HepG2 cells, above 50 µM; in [10], 800 ± 40 nM; in series [11] (Fig. 3B experiment) it was 740 nM; in series [15], 37.8 ± 3.2 µM. Moreover, the EC90 in series [6] (setting [20]) turned out to be 22 µM. Also, the oral bioavailability entry in series [7] is listed as “orally bioavailable”. Further, in series [7] (50 mg kg^−1 oral), the “maximum concentration in blood” value was 11,600 ng ml^−1. Also, the concentration at 24 h in [7] (BALB/c, mouse, whole blood, 50 mg kg^−1 oral, 24 h) worked out at 900 ng/mL. Moreover, the half-life in [7] (setting [21]) was around 300 min. For the same molecule, in series [7] (setting [21]), the Tmax was determined as 4 h. For the same molecule, the “suppression of infection (liver parasite burden) compared to untreated controls” value in series [8] is on record as “approximately 35%”. In series [8] (setting [22]), the “suppression of infection (liver parasite burden)” value is listed as “comparable to those seen in drug-free animals; also recorded: less efficacious”. Also, in series [8] (earlier in vivo study, range of doses down to 0.4 mg kg^−1, twice daily orally (Fig. S1)), the “dose dependence of leishmanicidal effect” value is “apparent absence of a dose-dependent leishmanicidal effect”. Further, the tolerability in mice entry in [9] was “extremely well tolerated”. For the same molecule, in the series on LdBOB promastigotes, the cytocidal or cytostatic entry is “leishmanicidal rather than cytostatic”. Further, in the series on LdBOB promastigotes, the “time after which cell numbers begin to decline” value stood at 12 h. In the series with LdBOB promastigotes, the “time at which no intact/live parasites remain” value is reported as 36 h. The same molecule had a CLint in series [12] of 1.6 mL/min/g. The same molecule returned a fraction unbound in the series “in vitro” of 0.21. The molecule further gave a solubility in “physchem” above 250 µM.
On to `FC(F)(F)Oc1ccc(CO[C@@H]2COc3nccn3C2)cc1` [(S)-des-nitro-PA-824], for which, in [5], the “activity against L. donovani promastigotes” value is “inactive”. For the same molecule, the “activity against L. donovani intracellular amastigotes” value in series [6] is “inactive”.
For `Cn1c([N+](=O)[O-])cnc1COc1ccc(S(C)(=O)=O)cc1` [fexinidazole sulfone, reference compound], the EC50 is 8800 nM in series [11] (Fig. 3A experiment) and 5.3 µM in [16].
As to `CSc1ccc(OCc2ncc([N+](=O)[O-])n2C)cc1` [fexinidazole], in series [17], the “sensitivity of nifurtimox-resistant T. brucei” value was “cross resistant”.
Regarding `CCCCCCCCCCCCCCCCOP(=O)([O-])OCC[N+](C)(C)C` [miltefosine], the “suppression of infection (liver parasite burden)” value in series [8] (12 mg kg^−1 orally once daily for 5 days) is on record as 68.7%.
On to `CC1CS(=O)(=O)CCN1/N=C/c1ccc([N+](=O)[O-])o1` (stereo not drawn) [nifurtimox], for which the EC50 worked out at 5600 ± 160 nM in series [5] (setting [24]) and 200 ± 90 nM in [10]. Further, in series [10] (transgenic versus wild-type), the “increase in sensitivity of nitroreductase-overexpressing parasites” value amounted to 26 fold.
On to `O.O.O.O.O.O.O.O.O.O=C([O-])[C@@H]1[O][Sb](=[O])([O][Sb]2(=[O])[O][C@H]([C@H](O)CO)[C@H](O)[C@H](C(=O)[O-])[O]2)[O][C@H]([C@H](O)CO)[C@@H]1O.[Na+].[Na+].[Na+]` (stereo partly drawn) [sodium stibogluconate], for which, in [8] (15 mg kg^−1 subcutaneously once daily for 5 days), the “suppression of infection (liver parasite burden)” value turned out to be 41.9%.
